biological target: RIPK1 (Homo sapiens (Human), UniProt Q13546); assay: RIPK1-ADP-Glo Enzymatic Assay; type: biochemical; conditions: recombinant GST-RIPK1 kinase domain (residues 1-327), 25 nM, ten-point titration, 30 minutes pre-incubation
Procedure, shortened: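 GST-RIPK1 kinase domain (residues 1-327, Sf21-expressed; 25 nM final) was pre-incubated 30 min at ambient temperature with compound (10-point 1:3 series from 100000 nM, 1% DMSO) in HEPES pH 7.3 buffer with 20 mM MgCl2. The reaction was started with 900 μM ATP (addition solution) and 3 μM dephosphorylated MBP and ran 150 min. Read-out was ADP-Glo luminescence, with EC50 from a four-parameter fit.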

RIPK1, sequence (Q13546 1-327): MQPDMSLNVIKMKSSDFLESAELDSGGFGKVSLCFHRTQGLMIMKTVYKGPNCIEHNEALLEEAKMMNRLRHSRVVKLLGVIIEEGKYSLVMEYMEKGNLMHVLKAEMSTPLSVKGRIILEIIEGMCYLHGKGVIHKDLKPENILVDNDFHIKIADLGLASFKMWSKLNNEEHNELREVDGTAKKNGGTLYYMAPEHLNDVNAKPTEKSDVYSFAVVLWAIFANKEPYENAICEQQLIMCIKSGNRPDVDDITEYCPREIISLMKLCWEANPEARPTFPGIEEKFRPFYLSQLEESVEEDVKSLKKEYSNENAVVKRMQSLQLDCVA

Point of comparison: `O=C1N2[C@H](c3cc(F)cc(F)c3)CCN2CC12CCN(S(=O)(=O)c1ccccc1)CC2` [Example 5.3, (S)-7′-(3,5-difluorophenyl)-1-(phenylsulfonyl) dihydro-l′H,3′H,5′H-spiro[piperidine-4,2′-pyrazolo[1,2-a]pyrazol]-l′-one], EC50 830 nM. Against it:
- Cc1nc(N2CCC3(CC2)CN2CC[C@@H](c4cc(F)cc(F)c4)N2C3=O)ccc1Cl [Example 11.1, (S)-1-(5-chloro-6-methylpyridin-2-yl)-7′-(3,5-difluorophenyl) dihydro-1′H,3′H,5′H-spiro [piperidine-4,2′-pyrazolo[1,2-α]pyrazol]-1′-one] — 36-fold lower, 23 nM
- Cc1ccnc(N2CCC3(CC2)CN2CC[C@@H](c4cc(F)cc(F)c4)N2C3=O)n1 [Example 1.27, (S)-7′-(3,5-difluorophenyl)-1-(4-methylpyrimidin-2-yl)dihydro-1′H,3′H,5′H-spiro[piperidine-4,2′-pyrazolo[1,2-a]pyrazol]-1′-one] — within 1.5-fold, 637 nM
- O=C1N2[C@H](c3cc(F)cc(F)c3)CCN2CC12CCN(c1ncc3c(n1)CCCC3)CC2 [Example 1.32, (S)-7′-(3,5-difluorophenyl)-1-(5,6,7,8-tetrahydroquinazolin-2-yl)dihydro-1′H,3′H,5′H-spiro[piperidine-4,2′-pyrazolo[1,2-a]pyrazol]-1′-one] — 2.9-fold lower, 288 nM
- O=C(c1cc(F)ccc1Cl)N1CCC2(CC1)CN1CC[C@@H](c3cc(F)cc(F)c3)N1C2=O [Example 4.20, (S)-1-(2-chloro-5-fluorobenzoyl)-7′-(3,5-difluorophenyl) dihydro-1′H,3′H,5′H-spiro[piperidine-4,2′-pyrazolo[1,2-a]pyrazol]-l′-one] — 17-fold lower, 50 nM
- N#Cc1cc(N2CCC3(CC2)CN2CC[C@@H](c4cc(F)cc(F)c4)N2C3=O)ccn1 [Example 2.4, (S)-4-(7′-(3,5-difluorophenyl)-1′-oxodihydro-l′H,3′H,5′H-spiro[piperidine-4,2′-pyrazolo[1,2-a]pyrazol]-1-yl)picolinonitrile] — 17-fold lower, 49 nM
- O=C1N2[C@H](c3cc(F)cc(F)c3)CCN2CC12CCN(c1nccn3ncnc13)CC2 [Example 1.79, (S)-1-([1,2,4]triazolo[1,5-a]pyrazin-8-yl)-7′-(3,5-difluorophenyl)dihydro-1′H,3′H,5′H-spiro[piperidine-4,2′-pyrazolo[1,2-a]pyrazol]-1′-one] — 28-fold lower, 30 nM
- O=C1N2[C@H](c3cc(F)cc(F)c3)CCN2CC12CCN(c1cc(F)ncc1F)CC2 [Example 1.9, (7′S)-7′-(3,5-difluorophenyl)-1-(2,5-difluoropyridin-4-yl)dihydro-1′H,3′H,5′H-spiro[piperidine-4,2′-pyrazolo[1,2-a]pyrazol]-1′-one] — 22-fold lower, 37 nM
- COc1ccc(C(=O)N2CCC3(CC2)CN2CC[C@@H](c4cc(F)cc(F)c4)N2C3=O)cc1F [Example 4.16, (S)-7′-(3,5-difluorophenyl)-1-(3-fluoro-4-methoxybenzoyl) dihydro-l′H,3′H,5′H-spiro[piperidine-4,2′-pyrazolo[1,2-a]pyrazol]-l′-one] — 10-fold lower, 83 nM
- O=C1N2[C@H](c3cc(F)cc(F)c3)CCN2CC12CCN(c1cc(C(F)F)ncn1)CC2 [Example 1.7, (7′S)-1-[6-(difluoromethyl)pyrimidin-4-yl]-7′-(3,5-difluorophenyl)dihydro-1′H,3′H,5′H-spiro [piperidine-4,2′-pyrazolo[1,2-a]pyrazol]-1′-one] — 21-fold lower, 39 nM
- CC(=O)c1cccc(N2CCC3(CC2)CN2CC[C@@H](c4cc(F)cc(F)c4)N2C3=O)n1 [Example 1.64, (S)-1-(6-acetylpyridin-2-yl)-7′-(3,5-difluorophenyl)dihydro-1′H,3′H,5′H-spiro[piperidine-4,2′-pyrazolo[1,2-a]pyrazol]-1′-one] — 33-fold lower, 25 nM
- O=C(c1cccc(F)c1F)N1CCC2(CC1)CN1CC[C@@H](c3cc(F)cc(F)c3)N1C2=O [Example 4.29, (S)-1-(2,3-difluorobenzoyl)-7′-(3,5-difluorophenyl) dihydro-1′H,3′H,5′H-spiro[piperidine-4,2′-pyrazolo[1,2-a]pyrazol]-l′-one] — 36-fold lower, 23 nM
- O=C1N2[C@H](c3cc(F)cc(F)c3)CCN2CC12CCN(c1ncnc3scnc13)CC2 [Example 3.1] — 35-fold lower, 24 nM
- O=C1N2[C@H](c3cc(F)cc(F)c3)CCN2CC12CCN(c1cncc(-n3cccn3)n1)CC2 [Example 1.70, (S)-1-(6-(1H-pyrazol-1-yl)pyrazin-2-yl)-7′-(3,5-difluorophenyl)dihydro-1′H,3′H,5′H-spiro[piperidine-4,2′-pyrazolo[1,2-a]pyrazol]-1′-one] — 10-fold lower, 82 nM
- O=C1N2[C@H](c3cc(F)cc(F)c3)CCN2CC12CCN(c1cc(-n3cccn3)ncn1)CC2 [Example 1.17, (S)-1-(6-(1H-pyrazol-1-yl)pyrimidin-4-yl)-7′-(3,5-difluorophenyl)dihydro-1′H,3′H,5′H-spiro[piperidine-4,2′-pyrazolo[1,2-a]pyrazol]-1′-one] — 42-fold lower, 20 nM
- CNC(=O)c1ccnc(N2CCC3(CC2)CN2CC[C@@H](c4cc(F)cc(F)c4)N2C3=O)n1 [Example 1.90, (S)-2-(7′-(3,5-difluorophenyl)-1′-oxodihydro-1′H,3′H,5′H-spiro[piperidine-4,2′-pyrazolo[1,2-a]pyrazol]-1-yl)-N-methylpyrimidine-4-carboxamide] — 7.8-fold lower, 106 nM
- O=C1N2[C@H](c3cc(F)cc(F)c3)CCN2CC12CCN(c1ccc(F)cc1)CC2 [Example 10.3, (S)-7′-(3,5-difluorophenyl)-1-(4-fluorophenyl)dihydro-1′H,3′H,5′H-spiro[piperidine-4,2′-pyrazolo[1,2-a]pyrazol]-l′-one] — 6.8-fold lower, 122 nM
- Cc1cc(F)c(C(=O)N2CCC3(CC2)CN2CC[C@@H](c4cc(F)cc(F)c4)N2C3=O)cc1F [Example 4.26, (S)-1-(2,5-difluoro-4-methylbenzoyl)-7′-(3,5-difluorophenyl) dihydro-1′H,3′H,5′H-spiro[piperidine-4,2′-pyrazolo[1,2-a]pyrazol]-l′-one] — 36-fold lower, 23 nM
- Cc1ccc2c(N3CCC4(CC3)CN3CC[C@@H](c5cc(F)cc(F)c5)N3C4=O)ccnc2c1 [Example 2.8, (S)-7′-(3,5-difluorophenyl)-1-(7-methylquinolin-4-yl)dihydro-l′H,3′H,5′H-spiro[piperidine-4,2′-pyrazolo[1,2-a]pyrazol]-1′-one] — 35-fold lower, 24 nM
- N#Cc1c(F)c(F)nc(N2CCC3(CC2)CN2CC[C@@H](c4cc(F)cc(F)c4)N2C3=O)c1F [Example 1.51, (S)-2-(7′-(3,5-difluorophenyl)-1′-oxodihydro-1′H,3′H,5′H-spiro [piperidine-4,2′-pyrazolo[1,2-a]pyrazol]-1-yl)-3,5,6-trifluoroisonicotinonitrile] — 4.4-fold lower, 189 nM
- Cc1cc(N2CCC3(CC2)CN2CC[C@@H](c4cc(F)cc(F)c4)N2C3=O)ccn1 [Example 2.3, (S)-7′-(3,5-difluorophenyl)-1-(2-methylpyridin-4-yl)dihydro-l′H,3′H,5′H-spiro[piperidine-4,2′-pyrazolo[1,2-a]pyrazol]-1′-one] — 1.7-fold lower, 501 nM
- Cc1cc(N2CCC3(CC2)CN2CC[C@@H](c4cc(F)cc(F)c4)N2C3=O)nc(Cl)n1 [Example 1.48, (S)-1-(2-chloro-6-methylpyrimidin-4-yl)-7′-(3,5-difluorophenyl)dihydro-1′H,3′H,5′H-spiro[piperidine-4,2′-pyrazolo[1,2-a]pyrazol]-1′-one] — 5.8-fold lower, 144 nM
- O=C1N2[C@H](c3cc(F)cc(F)c3)CCN2CC12CCN(c1cc(Br)cc(F)n1)CC2 [Example 1.60, (S)-1-(4-bromo-6-fluoropyridin-2-yl)-7′-(3,5-difluorophenyl)dihydro-1′H,3′H,5′H-spiro[piperidine-4,2′-pyrazolo[1,2-a]pyrazol]-1′-one] — 49-fold lower, 17 nM
- O=C1N2[C@H](c3cc(F)cc(F)c3)CCN2CC12CCN(c1cccc(CO)n1)CC2 [Example 1.4, (7′S)-7′-(3,5-difluorophenyl)-1-[6-(hydroxymethyl)pyridin-2-yl]dihydro-1′H,3′H,5′H-spiro [piperidine-4,2′-pyrazolo[1,2-a]pyrazol]-1′-one] — within 1.5-fold, 629 nM
- O=C1N2[C@H](c3cc(F)cc(F)c3)CCN2CC12CCN(c1cc(N3CCCC3)ncn1)CC2 [Example 1.69, (S)-7′-(3,5-difluorophenyl)-1-(6-(pyrrolidin-1-yl)pyrimidin-4-yl)dihydro-1′H,3′H,5′H-spiro[piperidine-4,2′-pyrazolo[1,2-a]pyrazol]-l′-one] — 2.8-fold lower, 296 nM
- Cc1ccc(F)cc1C(=O)N1CCC2(CC1)CN1CC[C@@H](c3cc(F)cc(F)c3)N1C2=O [Example 4.13, (S)-7′-(3,5-difluorophenyl)-1-(5-fluoro-2-methylbenzoyl) dihydro-1′H,3′H,5′H-spiro[piperidine-4,2′-pyrazolo[1,2-a]pyrazol]-l′-one] — 2.5-fold lower, 335 nM
- O=C(c1ncccn1)N1CCC2(CC1)CN1CC[C@@H](c3cc(F)cc(F)c3)N1C2=O [Example 4.2, (S)-7′-(3,5-difluorophenyl)-1-(pyrimidine-2-carbonyl)dihydro-1′H,3′H,5′H-spiro[piperidine-4,2′-pyrazolo[1,2-a]pyrazol]-l′-one] — 1.9-fold lower, 434 nM
- O=C(c1ccc(F)c(F)c1)N1CCC2(CC1)CN1CC[C@@H](c3cc(F)cc(F)c3)N1C2=O [Example 4.24, (S)-1-(3,4-difluorobenzoyl)-7′-(3,5-difluorophenyl) dihydro-1′H,3′H,5′H-spiro[piperidine-4,2′-pyrazolo[1,2-a]pyrazol]-l′-one] — 26-fold lower, 32 nM
- O=C1N2[C@H](c3cc(F)cc(F)c3)CCN2CC12CCN(c1cncc(Cl)n1)CC2 [Example 1.40, (S)-1-(6-chloropyrazin-2-yl)-7′-(3,5-difluorophenyl)dihydro-1′H,3′H,5′H-spiro[piperidine-4,2′-pyrazolo[1,2-a]pyrazol]-1′-one] — 2-fold lower, 407 nM
- N#Cc1ccc(N2CCC3(CC2)CN2CC[C@@H](c4cc(F)cc(F)c4)N2C3=O)n2nccc12 [Example 7.1] — 140-fold lower, 6 nM

— patent US20240425524A1, “SPIROTRICYCLE RIPK1 INHIBITORS AND METHODS OF USES THEREOF” (Merck Sharp & Dohme LLC, priority 2021, published 2024)
